According to BindingDB's records for doi:10.1016/j.bmcl.2011.07.125 (Pfizer, 2011):

Assay: Antagonist activity at H4R in human eosinophils assessed as inhibition of histamine-induced shape change by GAFS assay

Q: Which IC50 does the source give for `CN[C@@H]1CCN(c2cc(NCC3CC3)nc(N)n2)C1` here?
A: 0.65 nM
